Results on 6 molecules are retold here after ChEMBL document CHEMBL1147392, “Antimicrobial compounds from Petalostemum purpureum” (1993).

Test [1] has as its system Candida albicans. Put plainly: Antimicrobial activity against Candida albicans NIH B311 by twofold serial macrobroth dilution assay. It is filed as functional.
Test [2] deals with Staphylococcus aureus. Nature of the test: Antimicrobial activity against Staphylococcus aureus ATCC 6538 by twofold serial macrobroth dilution assay.
In test [3] the test system is Mycobacterium intracellulare. Nature of the test: Antimicrobial activity against Mycobacterium intracellular ATCC 23068 by twofold serial macrobroth dilution assay. It is filed as functional.
In test [4] the test system is Bacillus subtilis. Put plainly: Antimicrobial activity against Bacillus subtilis ATCC 6633 by twofold serial macrobroth dilution assay. Format: functional.
The subject of test [5] is Escherichia coli. Nature of the test: Antimicrobial activity against Escherichia coli ATCC 10536 by twofold serial macrobroth dilution assay. It is filed as functional.
In test [6] the test system is Cryptococcus neoformans. Nature of the test: Antimicrobial activity against Cryptococcus neoformans ATCC 32264 by twofold serial macrobroth dilution assay. Format: functional.

Each structure is given as a SMILES string. In brackets after ≈: the same amount, converted by molar mass.

Regarding `COc1cc(CC=C(C)C)c(-c2oc3c(CC=C(C)C)c(OC)cc(OC)c3c(=O)c2OC)c(CC=C(C)C)c1OC`, the results for the MIC in test [1], in test [2] and in test [3] were 25 µg/mL (≈ 43.3 µM), 12.5 µg/mL (≈ 21.7 µM) and 25 µg/mL (≈ 43.3 µM), respectively.

Regarding `CN[C@@H]1[C@H](O[C@H]2[C@H](O[C@H]3[C@H](O)[C@@H](O)[C@H](N=C(N)N)[C@@H](O)[C@@H]3N=C(N)N)O[C@@H](C)[C@]2(O)C=O)O[C@@H](CO)[C@H](O)[C@H]1O` [STREPTOMYCIN], the MIC in test [4] is 1.56 µg/mL (≈ 2.68 µM); in test [5], 3.12 µg/mL (≈ 5.36 µM); in test [2], 6.25 µg/mL (≈ 10.7 µM); in test [3], 1.56 µg/mL (≈ 2.68 µM).

For `C[C@@H]1[C@H](O)[C@@H](C)/C=C/C=C/C=C/C=C/C=C/C=C/C=C/[C@H](O[C@@H]2O[C@H](C)[C@@H](O)[C@H](N)[C@@H]2O)C[C@@H]2O[C@](O)(C[C@@H](O)C[C@@H](O)[C@H](O)CC[C@@H](O)C[C@@H](O)CC(=O)O[C@H]1C)C[C@H](O)[C@H]2C(=O)O` [AMPHOTERICIN B], the MIC was determined as 0.39 µg/mL (≈ 0.422 µM) in test [1] and 0.2 µg/mL (≈ 0.216 µM) in test [6].

As to `COc1cc(OC)c2c(c1CC=C(C)C)O[C@H](c1c(CC=C(C)C)cc(OC)c(OC)c1CC=C(C)C)[C@@H](O)C2=O`, the MIC in test [1] amounted to 100 µg/mL (≈ 177 µM); in test [2], 12.5 µg/mL (≈ 22.1 µM); in test [3], 12.5 µg/mL (≈ 22.1 µM).

Take `CC(C)=CCc1cc(O)c(O)c(CC=C(C)C)c1[C@H]1Oc2c(CC=C(C)C)c(O)cc(O)c2C(=O)[C@@H]1O` [PETALOSTEMUMOL]: the MIC in test [4] was 0.78 µg/mL (≈ 1.53 µM); in test [1], 12.5 µg/mL (≈ 24.6 µM); in test [6], 25 µg/mL (≈ 49.2 µM); in test [5] it was 6.25 µg/mL (≈ 12.3 µM); in test [2] it was 3.12 µg/mL (≈ 6.13 µM); in test [3], 6.25 µg/mL (≈ 12.3 µM).

For the molecule `COc1cc(CC=C(C)C)c([C@H]2Oc3c(CC=C(C)C)c(OC)cc(O)c3C(=O)[C@@H]2O)c(CC=C(C)C)c1O`, the MIC in test [3] was found to be 25 µg/mL (≈ 46.6 µM).
